No end group written: not given here.
Tests used:
hMSCs = assay: Loss of stemness: STRO-1 immunostaining of hMSCs cultured with compounds in solution; format: cell-based, Human; settings: compound in cell culture media solution; for STRO-1 Expression (%) after 96 h: 400 ng/mL added every 24 h; for STRO-1 Expression (%) after 48 h: 400 ng/mL
From the text: The following starting materials and reagents were used: • Apatite ceramics (also called apatite or ceramic in the present invention) were synthetized as described in Mater Res. 2004; 7(4): 625-630. • Titanium was obtained from Goodfellow®. • Hydrogel (poly(acrylamide-co-acrylic acid) gel) was synthetized as described in Langmuir 2011; 27(22):13635-42. • PEEK was obtained from Goodfellow®. • PET (Poly(ethylene terephthtalate) was obtained from Goodfellow@. • Type-I collagen sponge was obtained from Sigma®. • Hexane was obtained from Sigma®. • 3-succinimidyl-3-maleimidopropionate (SMP) was obtained from Sigma®. • DMF was obtained from Sigma®. • PBS 1× was obtained from Gibco®. • 3-(ethoxydimethylsilyl)propylamine was obtained from Sigma®. • Ammonium persulfate was obtained from Biorad®. • N,N,N′,N′-tetramethylethylenediamine was obtained from Aldrich®. • Acrylamid was obtained from Merck®. • Acrylic acid was obtained from Merck®. • N,N-methylene-bis-acrylamide was obtained from Merck®. • NaOH was obtained from Aldrich®. • N,N,N′,N′-tetramethylethylenediamine was obtained from Aldrich®. • Dimethylaminopropyl-3-ethylcarbodiimide hydrochloride was obtained from Aldrich®. • N-hydroxysuccinimide was obtained from Aldrich®. • 2-(N-morpholino)-ethane sulfonic acid was obtained from Aldrich®. • MilliQ water: is water characterised in terms of resistivity (typically 18.2 MΩ·cm at 25° C.). • Low glucose Dulbecco's Modified Eagle Medium (DMEM) was obtained from Invitrogen® • Minimum Essential Medium Eagle without ascorbic acid (αMEM) was obtained from Invitrogen®. • All of the cell culture experiments were carried out without any serum in the medium for the first 8 hours of culture. • Osteoblast progenitors or precursor osteoblasts: MC3T3-E1 cells were obtained from ATCC®. These cells were cultured in Alpha-MEM medium supplemented with 10% fetal calf serum (FCS) and 1% penicillin/streptomycin. All cells were used at a low passage number (passage 7), were subconfluently cultured and were seeded at 10^4 cells/cm^2 for the purpose of the experiments. • Human bone marrow Mesenchymal Stem Cells (hMSCs) were obtained from Lonza®. These cells were cultured in Alpha-MEM supplemented with 10% (v/v) FBS and 1% penicillin/streptomycin and incubated in a humidified atmosphere containing 5% (v/v) CO2 at 37° C. All cells were used at a low passage number (passage 2 to 4), were subconfluently cultured and were seeded at 10^4 cells/cm^2 for the purpose of the experiments. • Human adipose Mesenchymal Stem Cells (haMSCs) were obtained from Lonza®. These cells were cultured in Alpha-MEM supplemented with 10% (v/v) FBS and 1% penicillin/streptomycin and incubated in a humidified atmosphere containing 5% (v/v) CO2 at 37° C. All cells were used at a low passage number (passage 3 to 4), were subconfluently cultured and were seeded at 10^4 cells/cm^2 for the purpose of the experiments. • Mouse Hair Follicle Stem Cells were isolated and cultured as described in Methods Mol Biol. 2010; 585:401-20. • Neuron cells are Neuronal Schwann Cells obtained from ATCC®. These cells were cultured in Dulbecco's Modified Eagle's Medium supplemented with 10% (v/v) FBS and 1% penicillin/streptomycin and incubated in a humidified atmosphere containing 5% (v/v) CO2 at 37° C. All cells were used at a low passage number (passage 6-8), were subconfluently cultured and were seeded at 10^4 cells/cm^2 for the purpose of the experiments. • Human umbilical-vein endothelial cells (HUVECs) were purchased from Promocell®. HUVECs were isolated and grown on gelatin coated culture flasks in a complete HUVEC culture medium (IMDM (Invitrogen, France) supplemented with 20% (v/v) fetal bovine serum (FBS) (PAA, France) and 0.4% (v/v) EC growth supplement/heparin kit (Promocell, France)). Cells were subcultured by using trypsin/EDTA (Invitrogen, France) and maintained in a humidified atmosphere containing 5% CO2 at 37° C. These cells were used at a passage number 3 to 5 for the purpose of the experiments. […]

[1] = tested on: Human Hematopoietic Stem Cells; assay: Differentiation of human hematopoietic stem cells: loss of stemness marker CD-34+ (immunostaining); format: cell-based; settings: compound in cell media solution, 400 ng/mL, 48 hours

Row | Substance | STRO-1 Expression (%) after 96 h (hMSCs) [%] | STRO-1 Expression (%) after 48 h (hMSCs) [%] | CD34+ Expression (%) [1] [%]
1 | APTGGSATSMLYYDKGVVTYLRKHRGGVVKDKGVVTY (also: cyclic, ring type not given here) [SEQ ID NO: 717] | 17 | 28 | –
2 | APTLLNAISMLYFNDKQQIILKKYRLLVVRNDKQQII (also: cyclic, ring type not given here) [SEQ ID NO: 716] | 20 | 30 | –
3 | APVAAKPLSMLYVDKGVVTYDHHKDAAVEEDEYDKVV (also: cyclic, ring type not given here) [SEQ ID NO: 722] | 18 | 31 | –
4 | APVKMEPLPTVYYDDMGVPTEQLSNDMVEESGSLDDMGVPT (also: cyclic, ring type not given here) [SEQ ID NO: 746] | – | – | 37
5 | ASASPSSAPVDLKPLSMLYVIGKTPKIDHHKDMIVEESKSIGKTPKID (also: cyclic, ring type not given here) [SEQ ID NO: 734] | – | 33 | –
6 | ASASPSSVSQDLRSVKVAKVIGKTPKIKEVQVMIVKSSKIGKTPKID (also: cyclic, ring type not given here) [SEQ ID NO: 738] | – | 31 | –
7 | AVPKASSVPQKLEPLTILYYDSSNNVIEQLSNNMVKSIGKTPKID (also: cyclic, ring type not given here) [SEQ ID NO: 736] | – | 37 | –
8 | EPSSSRVRLEPLTTLYYGGGGGGGEQLSNVVEEHSKDKGVVTY (also: cyclic, ring type not given here) [SEQ ID NO: 745] | – | – | 37
9 | EPSSVSQAAEPLPIVYYRIKPHOGQHEQLSNMIVKSSKSSDDMGVPT [SEQ ID NO: 747] | – | – | 38
10 | HVTKPTSVPTKLSPISILFIDDSSNVIYKQYENMVVESSGSHIGKTPKID (also: cyclic, ring type not given here) [SEQ ID NO: 733] | – | 23 | –
11 | IPKASSAPVGQRPVQMRKIDKGVVTYKKATVSSVEESGSLDKGVVTY (also: cyclic, ring type not given here) [SEQ ID NO: 739] | – | – | 35
12 | KASSSRVKMSNITVQ1MRIKPHOGQHIGEMSVVEEHASGSHDKGVVTY (KASSSRVKMSNITVQIMRIKPHQGQHIGEMSVVEEHASGSHDKGVVTY; not fully specified (residue 23); printed as KASSSRVKMSNITVQ1MRIKPHOGQHIGEMSVVEEHASGSHDKGVVTY; also: cyclic, ring type not given here) [SEQ ID NO: 743] | – | – | 42
13 | KASSVPQEERPVQMRKIGGGGGGGKKATVMIVRSSKSSDDMGVPT (also: cyclic, ring type not given here) [SEQ ID NO: 740] | – | – | 31
14 | KIPKASSVPQELEPLPIVYYDENEKVVEQLSNDMVRSGSGSRDENEKV (also: cyclic, ring type not given here) [SEQ ID NO: 735] | – | 26 | –
15 | NDEGLESVPTGQSPISILYIRIKPHQGQHYKQYELEEHSQSESRDENEKV (also: cyclic, ring type not given here) [SEQ ID NO: 732] | – | 27 | –
16 | PTSSAPTDLRSVKMAKVEIVRKKPIFKEVQVDMVVKASGDKGVVTY (also: cyclic, ring type not given here) [SEQ ID NO: 742] | – | – | 33
17 | RVPSTSSAPVKTSNITMQIMDNGRVLLLGEMSMIVEESGSLIGKTPKID (also: cyclic, ring type not given here) [SEQ ID NO: 737] | – | 28 | –
18 | SRVAARSVKMAKVGGGGGGGKEVQVAAEEHGGGGGG (also: cyclic, ring not given here) [SEQ ID NO: 726] | 21 | 39 | –

Row | Substance | STRO-1 Expression (%) after 96 h (hMSCs) [%] | STRO-1 Expression (%) after 48 h (hMSCs) [%] | CD34+ Expression (%) [1] [%]
19 | SRVLLRPVQMRKIDKGVVTYKKATVLLEEHDKGVVTY (also: cyclic, ring not given here) [SEQ ID NO: 729] | 14 | 37 | –
20 | TPTSSSPINTLYFDDMGVPTYGKIPSSVVDDEYDKVV (also: cyclic, ring not given here) [SEQ ID NO: 720] | 14 | 21 | –
21 | TQVAARPVQTRKIDDMGVPTKKATVAAEDHDKGVVTY (also: cyclic, ring not given here) [SEQ ID NO: 730] | 21 | 36 | –
22 | VPEAASSLSMLFFEIVRKKPIFLKVYPAATVEDKGVVTY (also: cyclic, ring not given here) [SEQ ID NO: 714] | 18 | 28 | –
23 | VPQAAEPLPMLYYDKGVVTYEQLSNAAVRSDKGVVTY (also: cyclic, ring not given here) [SEQ ID NO: 723] | 20 | 34 | –
24 | VPQQQEPLTTLYYDEYDKVVEQLSNQQVKSNDKQQII (also: cyclic, ring not given here) [SEQ ID NO: 724] | 16 | 29 | –
25 | VPQRLEPLTILYYDAANNVVEQLSNDMVKSDENEKV (also: cyclic, ring not given here) [SEQ ID NO: 731] | – | 31 | –
26 | VPTAAEPISMLYLDEYDKVVKFKYEAAAVSNDKQQII (also: cyclic, ring not given here) [SEQ ID NO: 719] | 16 | 26 | –
27 | VPTAAEPLTMLYYEIVRKKPIFEQLSNMVEHSDDMGVPT (also: cyclic, ring not given here) [SEQ ID NO: 744] | – | – | 38
28 | VPTAASAISILYLDAANNVVLKNYQAAVVEDKGVVTY (also: cyclic, ring not given here) [SEQ ID NO: 713] | 23 | 29 | –
29 | VPTDDSATSTLYYDKGVVTYLRKHRDDEHSDKGVVTY (also: cyclic, ring not given here) [SEQ ID NO: 727] | 13 | 26 | –
30 | VPTGGEPLTTLYYNDKQQIIEQLSNGGEHSDDMGVPT (also: cyclic, ring not given here) [SEQ ID NO: 728] | 17 | 32 | –
31 | VPTMMSNITTQIMRIKPHQGQHIGEMSMMQHNDEYDKVV (also: cyclic, ring not given here) [SEQ ID NO: 725] | 20 | 35 | –
32 | VPTSSSPISTLYIDKGVVTYLKYHYSSVAEDEYDKVV (also: cyclic, ring not given here) [SEQ ID NO: 718] | 19 | 26 | –
33 | VPTVVSAISTLYLRIKPHQGQHLKNYQVVVVENDKQQII (also: cyclic, ring not given here) [SEQ ID NO: 715] | 24 | 31 | –
34 | VPTVVSPISMLYIDDMGVPTYKQYEVVVVEDDMGVPT (also: cyclic, ring not given here) [SEQ ID NO: 721] | 16 | 29 | –
35 | VSQAARPVQTRKIDDMGVPTKKATVAAVKSDDMGVPT (also: cyclic, ring not given here) [SEQ ID NO: 741] | – | – | 26

Reference: patent US20180305408A1, “COMPOUNDS FOR INDUCING TISSUE FORMATION AND USES THEREOF” (HISTIDE AG, priority 2015, published 2018)
